What was measured:
Type in all cases: ADME
Cytochrome P450 3A4 [1] = biological target: T1, Cytochrome P450 3A4 (Homo sapiens, UniProt P08684); assay: Time dependent inhibition of CYP3A4 in human liver microsomes assessed as conversion of testosterone to 6beta-hydroxytestosterone at 0.01 to 100 uM preincubated for 60 mins followed by testosterone treatment measured after 10 mins by LC-MS/MS analysis
Cytochrome P450 3A4 [2] = biological target: T1, Cytochrome P450 3A4; assay: Time dependent inhibition of CYP3A4 in human liver microsomes assessed as conversion of testosterone to 6beta-hydroxytestosterone at 0.01 to 100 uM preincubated for 60 mins followed by testosterone treatment measured after 10 mins by refined CYP450 IC50 shift assay in presence of NADPH
Cytochrome P450 3A4 [3] = biological target: T1, Cytochrome P450 3A4; assay: Time dependent inhibition of CYP3A4 in human liver microsomes assessed as conversion of testosterone to 6beta-hydroxytestosterone at 0.01 to 100 uM preincubated for 60 mins followed by testosterone treatment measured after 10 mins by LC-MS/MS analysis in presence of NADPH
Cytochrome P450 3A4 [4] = biological target: T1, Cytochrome P450 3A4; assay: Time dependent inhibition of CYP3A4 in human liver microsomes assessed as conversion of testosterone to 6beta-hydroxytestosterone at 0.01 to 100 uM preincubated for 60 mins followed by testosterone treatment measured after 10 mins by refined CYP450 IC50 shift assay

Measured: inhibition (INH)

T1 sequence (P08684 whole entry): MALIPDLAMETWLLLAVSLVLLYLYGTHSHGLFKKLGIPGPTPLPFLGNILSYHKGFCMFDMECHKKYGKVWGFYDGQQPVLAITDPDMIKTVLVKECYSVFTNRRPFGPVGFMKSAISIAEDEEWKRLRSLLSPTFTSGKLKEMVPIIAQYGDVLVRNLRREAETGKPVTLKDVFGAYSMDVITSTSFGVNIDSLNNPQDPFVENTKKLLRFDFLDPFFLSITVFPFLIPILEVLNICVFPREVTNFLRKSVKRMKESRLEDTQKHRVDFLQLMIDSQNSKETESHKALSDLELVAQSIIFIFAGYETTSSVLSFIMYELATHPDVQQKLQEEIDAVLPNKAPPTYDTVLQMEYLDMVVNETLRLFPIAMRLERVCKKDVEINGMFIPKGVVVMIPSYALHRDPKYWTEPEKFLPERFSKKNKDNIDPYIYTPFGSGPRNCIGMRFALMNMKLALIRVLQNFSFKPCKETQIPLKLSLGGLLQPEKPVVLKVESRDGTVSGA

CC(C)=CCC/C(C)=C/COc1c2ccoc2cc2oc(=O)ccc12 [BERGAMOTTIN]
Active: all assays above

C/C(=C\COc1c2ccoc2cc2oc(=O)ccc12)CCC(O)C(C)(C)O (stereo not given) [DIHYDROXYBERGAMOTTIN]
Active: all assays above

CC[C@H]1OC(=O)[C@H](C)[C@@H](O[C@H]2C[C@@](C)(OC)[C@@H](O)[C@H](C)O2)[C@H](C)[C@@H](O[C@@H]2O[C@H](C)C[C@H](N(C)C)[C@H]2O)[C@](C)(O)C[C@@H](C)C(=O)[C@H](C)[C@@H](O)[C@]1(C)O [ERYTHROMYCIN]
Active: all assays above

CNCCC(Oc1ccc(C(F)(F)F)cc1)c1ccccc1 (stereo not given) [FLUOXETINE]
Active: all assays above

O=C(c1ccc(OCCN2CCCCC2)cc1)c1c(-c2ccc(O)cc2)sc2cc(O)ccc12 [RALOXIFENE]
Active: all assays above

Reference: ChEMBL document CHEMBL3526100, “A refined cytochrome P540 IC₅₀ shift assay for reliably identifying CYP3A time-dependent inhibitors” (Drug Metab Dispos, 2011)
